Activity calls are given as the source filed them.
Columns and labels:
[1] = test system: H4; assay: Luminescence Cell-Based Dose Response HTS to Identify Activators of 5'UTR Stem-Loop Driven Prion Protein mRNA Translation in H4 Neuroglioblastoma Cells. [Related pubchem assays: 1829 (Project Summary), 1814 (Primary HTS)]; type: functional; conditions: Homo sapiens
[2] = Luminescence Cell-Based Dose Confirmation HTS to Identify Activators of 5'UTR Stem-Loop Driven Alpha-Synuclein mRNA Translation in H4 Neuroglioblastoma Cells. [Related pubchem assays: 1829 (Project Summary), 1814 (Primary HTS)]; type: functional
[3] = Luminescence Cell-Based Dose Response HTS to Identify Activators of Luciferase Translation or Activity in H4 […] Cells. [Related pubchem assays: 1829 (Project Summary), 1814 (Primary HTS)]; type: functional
[4] = HEp-2 cell cytotoxicity, dose response, cytotoxicity control for RSV inhibitor project, HTS (AID 2410); type: functional; conditions: human respiratory syncytial virus
[5] = Luminescence Cell-Based Dose Retest to Confirm Inhibitors of Cancer Stem Cells. [Related pubchem assays (depositor defined):AID2717, AID2721]; type: functional; conditions: Homo sapiens
[6] = target: Cytochrome P450 2D6 (Homo sapiens, UniProt P10635);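 note: CYP2D6 member of a cytochrome P450 panel assay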
Chain of Cytochrome P450 2D6 (P10635 whole entry): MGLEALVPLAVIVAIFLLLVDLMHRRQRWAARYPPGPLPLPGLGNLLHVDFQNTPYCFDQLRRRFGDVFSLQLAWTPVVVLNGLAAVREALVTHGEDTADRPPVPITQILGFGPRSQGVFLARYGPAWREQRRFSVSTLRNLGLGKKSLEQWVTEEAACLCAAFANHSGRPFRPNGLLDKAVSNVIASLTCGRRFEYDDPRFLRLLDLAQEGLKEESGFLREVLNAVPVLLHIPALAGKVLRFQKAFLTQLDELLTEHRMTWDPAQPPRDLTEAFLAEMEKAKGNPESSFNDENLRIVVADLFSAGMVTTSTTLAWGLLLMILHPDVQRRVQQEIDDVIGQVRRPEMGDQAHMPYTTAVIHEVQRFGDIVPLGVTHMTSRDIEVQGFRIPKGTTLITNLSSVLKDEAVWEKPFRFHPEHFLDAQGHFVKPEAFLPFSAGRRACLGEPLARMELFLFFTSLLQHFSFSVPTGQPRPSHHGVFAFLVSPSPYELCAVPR

[7] = target: T1, Cytochrome P450 1A2 (Homo sapiens, UniProt P05177);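 note: PubChem cytochrome P450 panel assay, CYP1A2 panel member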
T1 sequence (P05177 whole entry): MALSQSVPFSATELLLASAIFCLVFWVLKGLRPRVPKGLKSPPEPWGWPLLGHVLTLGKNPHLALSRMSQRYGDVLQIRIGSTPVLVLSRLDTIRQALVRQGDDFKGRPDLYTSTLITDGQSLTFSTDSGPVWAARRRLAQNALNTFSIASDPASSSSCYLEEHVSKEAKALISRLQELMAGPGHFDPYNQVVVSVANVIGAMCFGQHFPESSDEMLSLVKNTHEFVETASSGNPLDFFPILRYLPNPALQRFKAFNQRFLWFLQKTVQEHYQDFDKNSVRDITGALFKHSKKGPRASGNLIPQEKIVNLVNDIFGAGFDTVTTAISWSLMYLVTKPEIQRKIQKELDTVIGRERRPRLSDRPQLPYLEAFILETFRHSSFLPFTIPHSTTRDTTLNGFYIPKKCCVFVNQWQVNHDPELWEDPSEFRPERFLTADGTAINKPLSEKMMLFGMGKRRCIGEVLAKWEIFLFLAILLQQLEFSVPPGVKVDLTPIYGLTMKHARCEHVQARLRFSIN

[8] = test system: Streptococcus; assay: Group A Streptococcus viability loss, dose response, counter-screen for streptokinase expression inhibitor project, luminescence, BacTiterGlo (AID 1915); type: functional, organism-based;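 note: potency for reduction of bacterial viability or growth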
[9] = test system: Streptococcus sp. 'group A'; assay: growth inhibition of control SK(-) GAS strain, dose response, counter-screen for streptokinase expression inhibitor project, luminescence, kanamycin, BacTiterGlo, confirmation (AID 1900); type: functional, organism-based
[10] = target: T2, Streptokinase A (Streptococcus pyogenes serotype M1, UniProt P10520); assay: S. pyogenes streptokinase expression inhibitors, potency, dose response, plasminogen activation absorbance, OD405 (AID 1914); type: functional, Streptococcus pyogenes M1 GAS;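 note: secreted streptokinase activity via plasminogen activation per viability signal from cell pellet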
T2 sequence (P10520 whole entry): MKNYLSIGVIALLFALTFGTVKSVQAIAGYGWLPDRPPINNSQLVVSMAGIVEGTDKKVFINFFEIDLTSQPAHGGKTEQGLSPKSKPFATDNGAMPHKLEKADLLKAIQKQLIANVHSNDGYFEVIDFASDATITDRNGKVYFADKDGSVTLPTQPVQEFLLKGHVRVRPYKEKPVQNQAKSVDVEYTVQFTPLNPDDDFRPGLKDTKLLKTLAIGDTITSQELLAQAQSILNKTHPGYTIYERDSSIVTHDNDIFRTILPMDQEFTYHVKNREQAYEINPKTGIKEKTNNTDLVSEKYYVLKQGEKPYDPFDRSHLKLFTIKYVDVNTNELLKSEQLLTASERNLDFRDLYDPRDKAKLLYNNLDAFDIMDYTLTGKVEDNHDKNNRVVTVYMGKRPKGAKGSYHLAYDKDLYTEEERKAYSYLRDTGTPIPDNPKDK

[11] = target: Cytochrome P450 2C19 (Homo sapiens, UniProt P33261); assay: Cytochrome panel assay with activity outcomes. Panel member name: p450-cyp2c19 Compounds with AC50 equal or less than 10 uM are considered active; type: functional; conditions: read-out: AC50
Chain of Cytochrome P450 2C19 (P33261 whole entry): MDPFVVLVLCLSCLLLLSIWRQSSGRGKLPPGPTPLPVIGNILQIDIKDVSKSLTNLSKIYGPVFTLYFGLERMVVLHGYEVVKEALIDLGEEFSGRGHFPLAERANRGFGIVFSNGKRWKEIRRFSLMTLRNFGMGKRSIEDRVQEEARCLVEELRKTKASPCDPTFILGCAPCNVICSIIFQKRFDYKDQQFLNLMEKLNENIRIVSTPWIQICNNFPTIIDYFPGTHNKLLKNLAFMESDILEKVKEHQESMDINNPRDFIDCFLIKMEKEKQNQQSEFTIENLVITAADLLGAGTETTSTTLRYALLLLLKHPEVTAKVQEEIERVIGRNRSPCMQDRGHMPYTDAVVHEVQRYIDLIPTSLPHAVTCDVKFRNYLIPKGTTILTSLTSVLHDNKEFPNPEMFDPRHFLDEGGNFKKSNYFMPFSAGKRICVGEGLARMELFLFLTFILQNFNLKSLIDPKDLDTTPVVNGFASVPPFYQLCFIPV

[12] = target: Cytochrome P450 2C9 (Homo sapiens, UniProt P11712)
Chain of Cytochrome P450 2C9 (P11712 whole entry): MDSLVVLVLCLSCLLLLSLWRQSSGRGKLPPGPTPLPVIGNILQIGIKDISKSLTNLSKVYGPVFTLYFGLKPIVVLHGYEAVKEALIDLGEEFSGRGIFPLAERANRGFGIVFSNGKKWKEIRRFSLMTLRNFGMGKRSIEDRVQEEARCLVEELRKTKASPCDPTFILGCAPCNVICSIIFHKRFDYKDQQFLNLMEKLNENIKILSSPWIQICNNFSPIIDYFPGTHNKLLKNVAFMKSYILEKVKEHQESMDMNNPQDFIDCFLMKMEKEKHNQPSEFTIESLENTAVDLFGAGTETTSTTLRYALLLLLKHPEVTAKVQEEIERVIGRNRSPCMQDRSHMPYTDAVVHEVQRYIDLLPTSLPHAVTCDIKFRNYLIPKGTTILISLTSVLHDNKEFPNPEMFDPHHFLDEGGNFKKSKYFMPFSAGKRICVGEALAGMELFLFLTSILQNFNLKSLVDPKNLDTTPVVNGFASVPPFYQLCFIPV

[13] = target: Cytochrome P450 3A4 (Homo sapiens, UniProt P08684);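 note: CYP3A4 tested as one member of a cytochrome P450 panel screen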
Chain of Cytochrome P450 3A4 (P08684 whole entry): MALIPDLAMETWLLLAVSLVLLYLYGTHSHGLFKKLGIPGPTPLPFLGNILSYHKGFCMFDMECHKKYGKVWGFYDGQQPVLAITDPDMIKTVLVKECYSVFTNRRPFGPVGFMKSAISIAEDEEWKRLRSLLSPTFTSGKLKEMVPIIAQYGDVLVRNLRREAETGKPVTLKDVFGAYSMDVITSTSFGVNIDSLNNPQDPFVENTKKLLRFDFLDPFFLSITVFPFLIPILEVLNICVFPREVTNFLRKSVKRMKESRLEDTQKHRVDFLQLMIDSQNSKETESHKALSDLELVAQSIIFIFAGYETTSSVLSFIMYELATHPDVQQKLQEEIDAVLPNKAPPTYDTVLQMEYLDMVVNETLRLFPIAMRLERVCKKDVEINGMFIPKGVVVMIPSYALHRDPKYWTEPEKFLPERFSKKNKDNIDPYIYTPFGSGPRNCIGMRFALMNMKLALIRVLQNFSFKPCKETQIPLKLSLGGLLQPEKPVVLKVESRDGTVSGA

[14] = inhibitors of intracellular T. cruzi replication, confirmation, NIH3T3 host cells, beta-gal luminescence (AID 2044); type: functional, cell-based;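 note: intracellular parasites grown in NIH/3T3 mouse fibroblasts as host cells; luminescent beta-galactosidase reporter signal from transgenic T. cruzi replicating inside host cells; inhibitors lower the luminescence signal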
[15] = target: Paired box protein Pax-8 (Homo sapiens, UniProt Q06710); assay: inhibitors of PAX8-driven TPO luciferase reporter, dose response, RMG-I cells, cherry-pick (AID 687027); type: functional, cell-based;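 note: luciferase reporter driven by Pax8 target thyroperoxidase promoter measured by SteadyGlo luminescence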
Chain of Paired box protein Pax-8 (Q06710 whole entry): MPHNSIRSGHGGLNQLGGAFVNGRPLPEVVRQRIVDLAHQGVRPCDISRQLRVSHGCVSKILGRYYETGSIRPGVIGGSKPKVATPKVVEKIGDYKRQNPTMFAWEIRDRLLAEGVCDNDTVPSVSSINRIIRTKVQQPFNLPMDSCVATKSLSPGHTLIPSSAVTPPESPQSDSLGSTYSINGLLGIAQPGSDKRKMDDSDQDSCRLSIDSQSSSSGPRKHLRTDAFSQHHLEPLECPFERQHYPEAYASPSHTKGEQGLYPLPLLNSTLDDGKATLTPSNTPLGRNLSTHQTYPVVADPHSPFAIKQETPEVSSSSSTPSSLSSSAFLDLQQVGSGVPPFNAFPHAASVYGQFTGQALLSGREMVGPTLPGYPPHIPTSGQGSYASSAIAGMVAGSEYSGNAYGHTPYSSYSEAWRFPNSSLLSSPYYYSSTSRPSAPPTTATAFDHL

[16] = cytotoxicity toward NIH3T3 fibroblasts, dose response, counter-screen, cell-based, ATP luminescence, mouse fibroblasts (AID 2010); type: functional;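 note: cells exposed to compound for about 90 hours before reading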

COc1ccc(C(=O)C(OC(=O)c2ccccc2)c2ccccc2)cc1 (stereo not drawn)
EC50 [1]: 6.4 µM (active)
EC50 [2]: 10.7 µM (active)
EC50 [3]: 30.5 µM (active)

COc1cc(OC)c(NC(=O)C2CCN(S(=O)(=O)c3ccc4c(c3)CC(C)N4C(C)=O)CC2)cc1Cl (stereo not drawn)
CC50 [4]: > 50 µM (active)

CCc1cc2cccc(C)c2nc1SCC(=O)c1ccc(NC(C)=O)cc1
AC50 [5]: 2.94 µM (active)

COc1cccc(NS(=O)(=O)c2ccc3ncc(C(=O)NCCN4CCOCC4)c(O)c3c2)c1
AC50 [6]: 28.2 µM (inconclusive)
AC50 [7]: 12.6 µM (inconclusive)

COc1ccc(CCn2c(-c3ccccc3)nc3c(c(=O)c4ccccc4n3C)c2=O)cc1
EC50 [1]: > 120 µM (not active)
EC50 [2]: > 120 µM (not active)
EC50 [3]: 24.2 µM (inconclusive)

Brc1ccccc1OCCCCn1cnc2ccccc21
EC50 [1]: 13 µM (inconclusive)
EC50 [2]: > 120 µM (not active)
EC50 [3]: 16.9 µM (active)

CCc1sc(C(=O)Nc2nccs2)cc1C
EC50 [8]: > 150 µM (not active)
EC50 [9]: > 150 µM (not active)
EC50 [10]: > 150 µM (not active)

Cc1ccc(Nc2ncnc3sc(C)c(C)c23)cc1
EC50 [1]: 26.3 µM (active)
EC50 [2]: 18.1 µM (active)
EC50 [3]: 19.5 µM (active)

COc1ccc(-n2c(=O)cnc3cnc(Oc4cccc(Cl)c4)nc32)cc1
AC50 [11]: 15.8 µM (inconclusive)
AC50 [6]: 39.8 µM (inconclusive)

CCOC(=O)O[C@]1(C(=O)COC(=O)CC)CC[C@@H]2[C@@H]3CCC4=CC(=O)C=C[C@@]4(C)[C@H]3[C@H](O)C[C@]21C
AC50 [12]: 12.6 µM (inconclusive)
AC50 [13]: 12.6 µM (inconclusive)
AC50 [6]: 12.6 µM (inconclusive)

C=C(C)COc1ccc(-c2nc(N)ncc2Oc2ccc(OC)cc2)c(O)c1
EC50 [8]: > 150 µM (not active)
EC50 [9]: 47.6 µM (active)
EC50 [10]: > 150 µM (not active)

O=C1[C@@H]2Cc3c([nH]c4ccccc34)C(c3cccc(Br)c3)N2C(=O)CN1C1CCN(Cc2ccccc2)CC1 (stereo partly drawn)
EC50 [14]: 1.32 µM (active)
AC50 [15]: 12.1 µM (active)
AC50 [5]: 6.9 µM (active)
EC50 [16]: 9.95 µM (active)

N#C/C(=C\c1ccc(OCc2ccccc2)cc1)C(=O)Nc1nc2c(s1)CCN(Cc1ccccc1)C2
CC50 [4]: 28.8 µM (active)

COc1ccc2nc(O)c(CN(CCc3ccccc3)C(C)=O)cc2c1
AC50 [12]: 14.1 µM (inconclusive)
AC50 [6]: 14.1 µM (inconclusive)
AC50 [7]: 14.1 µM (inconclusive)

COc1cc(OC)cc(C(=O)Nc2cccc(-c3ccc(N4CCOCC4)nn3)c2)c1
EC50 [8]: > 150 µM (not active)
EC50 [9]: > 150 µM (not active)
EC50 [10]: > 150 µM (not active)

Source: ChEMBL document CHEMBL1201862, “PubChem BioAssay data set” (2004)
